Assay results: patent US20240083892A1 (BISICHEM CO., LTD., priority 2021, published 2024)

Experiments:
[1] = biological target: T1, RIPK1 (Homo sapiens, UniProt Q13546); assay: Cell-based necroptosis assay for RIPK1 activity (cell viability by CCK-8); details: HT-29 cells; Z-VAD-FMK 20 μM, human TNFα 10 ng/ml, SM-164 100 nM; 24 h; read-out: Cell-base RIPK1 activity: Necroptosis
T1 construct: endogenous in cells; host or cells: HT-29 (KCLB 30038)
T1 sequence (Q13546 1-671): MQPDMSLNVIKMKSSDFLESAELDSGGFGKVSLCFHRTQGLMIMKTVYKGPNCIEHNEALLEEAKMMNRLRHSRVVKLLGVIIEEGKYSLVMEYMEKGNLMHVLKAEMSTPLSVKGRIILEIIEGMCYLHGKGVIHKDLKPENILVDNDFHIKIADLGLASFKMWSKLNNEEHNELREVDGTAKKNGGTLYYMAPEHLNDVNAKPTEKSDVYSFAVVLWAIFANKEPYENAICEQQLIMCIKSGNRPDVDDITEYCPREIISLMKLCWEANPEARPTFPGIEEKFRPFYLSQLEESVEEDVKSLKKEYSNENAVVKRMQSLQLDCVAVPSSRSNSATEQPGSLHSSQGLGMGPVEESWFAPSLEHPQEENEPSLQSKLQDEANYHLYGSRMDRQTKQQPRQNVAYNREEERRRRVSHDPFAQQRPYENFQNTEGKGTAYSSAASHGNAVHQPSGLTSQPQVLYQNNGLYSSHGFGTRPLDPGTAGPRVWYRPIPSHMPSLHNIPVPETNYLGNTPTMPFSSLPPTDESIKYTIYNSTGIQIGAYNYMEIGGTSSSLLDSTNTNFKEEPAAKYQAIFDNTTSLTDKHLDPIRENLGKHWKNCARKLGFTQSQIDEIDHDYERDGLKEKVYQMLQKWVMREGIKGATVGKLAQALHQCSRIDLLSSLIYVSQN
Procedure: (§1) Human colon carcinoma cell HT-29 (KCLB 30038), BV2 mouse microglial cell (cell was a kind gift from Dr. Nak-Yun Sung, Senior researcher at Korea Prime Pharmacy CO., LTD.) and human microglial cell HMC3 (ATCC® CRL-3304™). HT-29 cell was grown in Roswell Park Memorial Institute (RPMI) 1640, BV2 cell was grown in Dulbecco's Modified Eagle's Medium (DMEM) and HMC3 cell was grown in Minimum Essential Media Eagle (MEM) supplemented with 10% fetal bovine serum and 1% mixture of penicillin and streptomycin (Gibco). Cells were maintained at 37° C. in a humidified 5% CO2 atmosphere.
To measure the activity of RIPK1 inhibitor in necroptotic cells, HT-29 cells were treated by control DMSO, human TNFα (Peprotech, Rocky Hill, USA), SM-164 (Biovision, California, USA) and a pan-caspase inhibitor Z-VAD-FMK (Invivogen, San Diego, USA). Cells were pretreated with Z-VAD-FMK 20 μM. After 30 min, human TNFα 10 ng/ml, SM-164 100 nM and RIPK1 Inhibitor (0.0001, 0.001, 0.01, 0.02, 0.05, 0.1, 1, 10 uM) were treated for 24 h. Cell viability was measured by Cell Counting Kit 8 (CCK-8) (Dong-in, Seoul, Korea).

[2] = biological target: T1, RIPK1; assay: Immunoblotting of TNFα induced phospho-RIPK1 (ser 166) levels; format: cell-based; details: HMC3 cells; Z-VAD-FMK, human TNFα 20 ng/ml, SM-164 100 nM; 7 h, serum free media; read-out: Cell-base RIPK1 activity: phspho-RIPK1 (Ser166)
Procedure: as §1
Biological activity of the compounds of RIPK1 inhibitor was determined by measuring their ability to inhibitor TNFα induced phospho-RIPK1 (ser 166) levels, phospho-RIPK3 levels, phospho-MLKL levels in HMC3 cells. Cells were pretreated with Z-VAD-FMK […]. After 30 min, human TNFα 20 ng/ml, SM-164 100 nM and RIPK1 inhibitor (0.1, 1, 10 nM) were treated for 7 h under serum free media. Cells were lysed with cold lysis buffer containing 25 mM HEPES pH 7.6, […] NaCl, 1% NP40, 1% sodium deoxycholate, 0.1% SDS, and protease inhibitor mixture (Bimake, Houston, USA) using sonicators. The cells were centrifuged at 15,000 rpm, 4° C. for 5 min. After protein concentration of the lysates (supernatants) was quantified using BCA assay (Thermo Fisher Scientific, Waltham, USA), lysates were mixed with LDS sample buffer and heating at […] for 10 min. (Invitrogen, California, USA). […] The membranes are placed in an image analyzer (Imagequant, LAS 500, GE Healthcare), connected to a computer which allows the image generation (software Image reader LAS 500).

SMILES | IC50 [2] [nM] | IC50 [1] [nM]
CN1C(=O)[C@@H](NC(=O)n2cc(Cc3cccc(F)c3)cn2)COc2ccc(C(=O)N3CCC(C)(C)CC3)cc21 [Example 2, (S)—N-(7-(4,4-dimethylpiperidine-1-carbonyl)-5-methyl-4-oxo-2,3,4,5-tetrahydrobenzo[b][1,4]oxazepin-3-yl)-4-(3-fluorobenzyl)-1H-pyrazole-1-carboxamide] | < 10 | < 10
CN1C(=O)[C@@H](NC(=O)n2cc(Cc3cccc(F)c3)cn2)COc2ccc(OCCCC3(O)CCC3)cc21 [Example 28, (S)-4-(3-fluorobenzyl)-N-(7-(3-(1-hydroxycyclobutyl)propoxy)-5-methyl-4-oxo-2,3,4,5-tetrahydrobenzo[b][1,4]oxazepin-3-yl)-1H-pyrazole-1-carboxamide] | < 10 | < 10
CN1C(=O)[C@@H](NC(=O)n2cc(Cc3cccc(F)c3)cn2)COc2ccc(OCC(=O)N3CCC(C(C)(C)O)C3)cc21 (stereo partly drawn) [Example 48, 4-(3-fluorobenzyl)-N-((3S)-7-(2-(3-(2-hydroxypropan-2-yl)pyrrolidin-1-yl)-2-oxoethoxy)-5-methyl-4-oxo-2,3,4,5-tetrahydrobenzo[b][1,4]oxazepin-3-yl)-1H-pyrazole-1-carboxamide] | < 10 | < 10
CN1C(=O)[C@@H](NC(=O)n2cc(Cc3cccc(F)c3)cn2)COc2ccc(OCC(=O)N3CCC(F)(F)C3)cc21 [Example 45, (S)—N-(7-(2-(3,3-difluoropyrrolidin-1-yl)-2-oxoethoxy)-5-methyl-4-oxo-2,3,4,5-tetrahydrobenzo[b][1,4]oxazepin-3-yl)-4-(3-fluorobenzyl)-1H-pyrazole-1-carboxamide] | < 10 | < 10
CN1C(=O)[C@@H](NC(=O)n2cc(Cc3cccc(F)c3)cn2)COc2ccc(OCCC(C)(C)O)cc21 [Example 21, (S)-4-(3-fluorobenzyl)-N-(7-(3-hydroxy-3-methylbutoxy)-5-methyl-4-oxo-2,3,4,5-tetrahydrobenzo[b][1,4]oxazepin-3-yl)-1H-pyrazole-1-carboxamide] | < 10 | < 10
CN1C(=O)[C@@H](NC(=O)n2cc(Cc3cccc(F)c3)cn2)COc2ccc(OCc3ccc(F)cn3)cc21 [Example 58, (S)-4-(3-fluorobenzyl)-N-(7-((5-fluoropyridin-2-yl)methoxy)-5-methyl-4-oxo-2,3,4,5-tetrahydrobenzo[b][1,4]oxazepin-3-yl)-1H-pyrazole-1-carboxamide] | < 10 | < 10
CN1C(=O)[C@@H](NC(=O)n2cc(Cc3cccc(F)c3)cn2)COc2ccc(OCc3nc(C(C)(C)O)cs3)cc21 [Example 66, (S)-4-(3-fluorobenzyl)-N-(7-((4-(2-hydroxypropan-2-yl)thiazol-2-yl)methoxy)-5-methyl-4-oxo-2,3,4,5-tetrahydrobenzo[b][1,4]oxazepin-3-yl)-1H-pyrazole-1-carboxamide] | < 10 | < 10
CN1C(=O)[C@@H](NC(=O)n2cc(Cc3cccc(F)c3)cn2)COc2ccc(OCc3ccc(F)cc3)cc21 [Example 57, (S)-4-(3-fluorobenzyl)-N-(7-((4-fluorobenzyl)oxy)-5-methyl-4-oxo-2,3,4,5-tetrahydrobenzo[b][1,4]oxazepin-3-yl)-1H-pyrazole-1-carboxamide] | < 10 | < 10

Second part, led by results:

IC50 [2] [nM] | SMILES | IC50 [1] [nM]
< 10 | CN1C(=O)[C@@H](NC(=O)n2cc(Cc3cccc(F)c3)cn2)COc2ccc(OCCCC3(O)CCCCC3)cc21 [Example 27, (S)-4-(3-fluorobenzyl)-N-(7-(3-(1-hydroxycyclohexyl)propoxy)-5-methyl-4-oxo-2,3,4,5-tetrahydrobenzo[b][1,4]oxazepin-3-yl)-1H-pyrazole-1-carboxamide] | < 10
< 10 | CN1C(=O)[C@@H](NC(=O)n2cc(Cc3cccc(F)c3)cn2)COc2ccc(OCc3cnc(Cl)nc3)cc21 [Example 62, (S)—N-(7-((2-chloropyrimidin-5-yl)methoxy)-5-methyl-4-oxo-2,3,4,5-tetrahydrobenzo[b][1,4]oxazepin-3-yl)-4-(3-fluorobenzyl)-1H-pyrazole-1-carboxamide] | < 10
10 to 50 | CN(C(=O)c1ccc2c(c1)N(C)C(=O)[C@@H](NC(=O)n1cc(Cc3cccc(F)c3)cn1)CO2)c1ccncc1 [Example 12, (S)-3-(4-(3-fluorobenzyl)-1H-pyrazole-1-carboxamido)-N,5-dimethyl-4-oxo-N-(pyridin-4-yl)-2,3,4,5-tetrahydrobenzo[b][1,4]oxazepine-7-carboxamide] | 10 to 50
10 to 50 | CN1C(=O)[C@@H](NC(=O)n2cc(Cc3cccc(F)c3)cn2)COc2ccc(OC(C)(C)C(=O)N3CCC(C)(O)CC3)cc21 [Example 42, (S)-4-(3-fluorobenzyl)-N-(7-((1-(4-hydroxy-4-methylpiperidin-1-yl)-2-methyl-1-oxopropan-2-yl)oxy)-5-methyl-4-oxo-2,3,4,5-tetrahydrobenzo[b][1,4]oxazepin-3-yl)-1H-pyrazole-1-carboxamide] | 10 to 50
< 10 | CN1C(=O)[C@@H](NC(=O)n2cc(Cc3cccc(F)c3)cn2)COc2ccc(OCC(=O)N3CCC(F)(F)CC3)cc21 [Example 38, (S)—N-(7-(2-(4,4-difluoropiperidin-1-yl)-2-oxoethoxy)-5-methyl-4-oxo-2,3,4,5-tetrahydrobenzo[b][1,4]oxazepin-3-yl)-4-(3-fluorobenzyl)-1H-pyrazole-1-carboxamide] | < 10
10 to 50 | CN1C(=O)[C@@H](NC(=O)n2cc(Cc3cccc(F)c3)cn2)COc2ccc(OCC(=O)n3cc(O[Si](C)(C)C(C)(C)C)cn3)cc21 [Example 54, (S)—N-(7-(2-(4-((tert-butyldimethylsilyl)oxy)-1H-pyrazol-1-yl)-2-oxoethoxy)-5-methyl-4-oxo-2,3,4,5-tetrahydrobenzo[b][1,4]oxazepin-3-yl)-4-(3-fluorobenzyl)-1H-pyrazole-1-carboxamide] | 10 to 50
< 10 | CN1C(=O)[C@@H](NC(=O)n2cc(Cc3cccc(F)c3)cn2)COc2ccc(OCC(=O)N3CCC(O)CC3)cc21 [Example 40, (S)-4-(3-fluorobenzyl)-N-(7-(2-(4-hydroxypiperidin-1-yl)-2-oxoethoxy)-5-methyl-4-oxo-2,3,4,5-tetrahydrobenzo[b][1,4]oxazepin-3-yl)-1H-pyrazole-1-carboxamide] | < 10
< 10 | CN1C(=O)[C@@H](NC(=O)n2cc(Cc3cccc(F)c3)cn2)COc2ccc(OCC(=O)N3CCC(C)(C)CC3)cc21 [Example 37, (S)—N-(7-(2-(4,4-dimethylpiperidin-1-yl)-2-oxoethoxy)-5-methyl-4-oxo-2,3,4,5-tetrahydrobenzo[b][1,4]oxazepin-3-yl)-4-(3-fluorobenzyl)-1H-pyrazole-1-carboxamide] | < 10
< 10 | CN1C(=O)[C@@H](NC(=O)n2cc(Cc3cccc(F)c3)cn2)COc2ccc(OCC(C)(C)O)cc21 [Example 20, (S)-4-(3-fluorobenzyl)-N-(7-(2-hydroxy-2-methylpropoxy)-5-methyl-4-oxo-2,3,4,5-tetrahydrobenzo[b][1,4]oxazepin-3-yl)-1H-pyrazole-1-carboxamide] | < 10
